Results taken from patent US10738028B2, “Spiro three-membered ring, spiro five-membered ring peptide deformylase inhibitor and use thereof in antibacteria and anti-tumor” (priority 2016, dated 2020).
Converted amounts (≈) assume the structure as drawn. Like-named read-outs stand apart in the source and are kept apart here.

Columns and labels:
[1] = MIC in vitro anti-bacterial experiments, Gram-positive bacteria; assay type: cell-based; details: lowest MIC reached; read-out: minimum inhibitory concentration against Gram-positive bacteria
Source text: 1. The invention adopts the two-fold agar dilution method recommended by the operating procedure of antimicrobial susceptibility testing set by American Clinical and Laboratory Standards Institute (CLSI) to determine the Minimum Inhibitory Concentration (MIC) of the test samples against the tested strains.

[2] = system: HCT-116 colorectal cancer cell line; test: CCK-8 proliferation inhibition; assay type: cell-based; details: Homo sapiens, HCT-116, 72 h, read-out: HCT116 inhibition rate/%
Procedure, shortened: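 Viability read-out: 1:10 diluted CCK-8 after 72 h compound exposure at 37 °C, 5% CO2. Cells (2000/well, McCoy's 5A plus 10% newborn bovine serum) pre-cultured overnight; vehicle control 1‰ DMSO.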

[3] = system: methicillin-resistant Staphylococcus epidermidis (MRSE); test: MIC, two-fold agar dilution (CLSI), clinical isolates; assay type: cell-based
Procedure, shortened: (§1)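 Following the American Clinical and Laboratory Standards Institute procedure, agar two-fold dilution served to determine minimum inhibitory concentrations.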

[4] = system: methicillin-sensitive Staphylococcus epidermidis (MSSE); test: as above; assay type: cell-based
Procedure, shortened: as §1

[5] = system: methicillin-resistant Staphylococcus aureus (MRSA); test: as above; assay type: cell-based
Procedure, shortened: as §1

[6] = system: Escherichia coli (including ESBLs, non-ESBLs); test: as above; assay type: cell-based
Procedure, shortened: as §1

[7] = system: Enterococcus faecalis (EFA); test: as above; assay type: cell-based
Procedure, shortened: as §1

[8] = system: methicillin-sensitive Staphylococcus aureus (MSSA); test: as above; assay type: cell-based
Procedure, shortened: as §1

[9] = system: methemoglobin in blood samples of three healthy volunteers; test: Toxicity on methemoglobin in vitro (whole blood with S9 and NADPH, absorbance at 630 nm); assay type: cell-based, human
Protocol: Because PDF inhibitors such as LBM415 and GSK1322322 can produce active species such as aromatic hydroxylamine and aromatic hydrazines in metabolic process, and cause human methemoglobinemia. To this end, continuous wavelength method was adopted in this invention to scan the absorption spectrum of blood samples in the wavelength range of 500 to 700 nm in the ultraviolet-visible spectrophotometer, and the contents of methemoglobin in blood samples of three healthy volunteers were calculated, after being effected by the synthesized compounds.
Experimental materials: Nicotinamide adenine dinucleotide phosphate (NADPH) reduction system: glucose-6-disodium phosphate, nicotinamide adenine dinucleoside phosphate and glucose-6-phosphate dehydrogenase (purchased from Shanghai yuanye Bio-Technology Co., Ltd) were added to 1 mL of phosphate buffer solution (PBS, pH 7.4), and the mixture was shaked in a shaker type water bath at 37° C. for 10 min, and then cooled to 0° C. Mixed human hepatocytes fraction S9 was purchased from Xenotech (20 mg S9 protein/1 mL suspension medium). Compounds were prepared to stock solution at a concentration of 50 mM, which was stored at −20° C. for use. Dapsone was used as positive control experimental reagent, which was purchased from Sigma Aldrich. 1% w/v triton X-100 was self-prepared. Blood samples were collected using Vacutainer tubes containing EDTA anticoagulants (BD, Franklin Lakes, USA), which were sampled from three healthy volunteers and used immediately after sampling.
Preparation of incubation system for blood samples and drugs: 250 μL of incubation system was consist of 220 μL of whole blood, 25 μL of S9 (final concentration: 2 mg S9 protein/mL incubation solution), 2.5 μL of NADPH form system (final concentration: 10 mM G-6-P, 1 mM NADP, 7.5 Units/mL) and 2.5 μL of stock solution of a compound (final concentration 500 μM). […] of incubation system was placed in an Eppendorf tube and incubated for 5 hours at 37° C. in water bath.
Determination of the content of methemoglobin: 60 μL of an incubated sample was taken and lysed with 3.0 mL of 1% Triton X-100. The content of methemoglobin (MetHb) was measured by an ultraviolet-visible spectrophotometer, with the Triton X-100 solution used as blank control. A sample was placed in a cuvette, 1 minute later, the spectrums of the sample in the wavelength range from 500 nm to 700 nm were recorded. The sample was added with 2 mg of potassium ferricyanide, and was allowed to stay stationary for 2 minutes for completely oxidization of ferrous iron in the sample, and standard spectrum of methemoglobin with saturated potassium ferricyanide. The percentage of methemoglobin formation (MetHb %) was obtained by the ratio of absorbance at 630 nm. MetHb %=(A′−AB′)/AM′, wherein, A′ was the total absorbance of the sample at 630 nm, AB′ was the base absorbance of the reduced blood in the sample at 630 nm, and AM′ was the absorbance of oxidized blood with saturated potassium ferricyanide at 630 nm.

[10] = strain printed MRSA 14-1 (second line of that name, r23, before MRSE 14-2)

SMILES | MIC (anti-bacterial activity) ([3]; strain MRSE 14-2) [mg/L] | MIC (anti-bacterial activity) ([3]; strain MRSE 14-3) [mg/L] | MIC (anti-bacterial activity) ([3]; strain MRSE 14-4) [mg/L] | MIC (anti-bacterial activity) ([4]; strain MSSE 14-1) [mg/L] | MIC (anti-bacterial activity) ([4]; strain MSSE 14-2) [mg/L] | MIC (anti-bacterial activity) ([4]; strain MSSE 14-3) [mg/L] | MIC (anti-bacterial activity) ([4]; strain MSSE 14-4) [mg/L] | MIC (anti-bacterial activity) ([5]; strain MRSA 14-1) [mg/L] | MIC (anti-bacterial activity) ([5]; strain MRSA 14-2) [mg/L] | MIC (anti-bacterial activity) ([5]; strain MRSA 14-4) [mg/L] | MIC (anti-bacterial activity) ([5]; strain MRSA 14-5) [mg/L] | MIC (anti-bacterial activity) [5, 10] [mg/L] | MIC (anti-bacterial activity) ([6]; strain ECO+ 14-1) [mg/L] | MIC (anti-bacterial activity) ([6]; strain ECO+ 14-2) [mg/L] | MIC (anti-bacterial activity) ([6]; strain ECO− 14-1) [mg/L] | MIC (anti-bacterial activity) ([6]; strain ECO− 14-2) [mg/L] | MIC (anti-bacterial activity) ([7]; strain EFA 14-1) [mg/L] | MIC (anti-bacterial activity) ([7]; strain EFA 14-2) [mg/L] | MIC (anti-bacterial activity) ([7]; strain EFA 14-3) [mg/L] | MIC (anti-bacterial activity) ([7]; strain EFA 14-5) [mg/L] | also measured
CCCC[C@H](CN(O)C=O)C(=O)N1CC2(CC2)C[C@H]1C(=O)Nc1ccc(C)c(Nc2nccc(-c3cccnc3)n2)c1 [Example 4] | < 0.008 | < 0.008 | < 0.008 | 0.015 (≈ 0.0262 µM) | < 0.008 | < 0.008 | 0.015 (≈ 0.0262 µM) | 0.015 (≈ 0.0262 µM) | 0.015 (≈ 0.0262 µM) | < 0.008 | < 0.008 | < 0.008 | 4 (≈ 7 µM) | > 128 | > 128 | > 128 | 0.03 (≈ 0.0525 µM) | 0.015 (≈ 0.0262 µM) | 0.03 (≈ 0.0525 µM) | > 128 | MIC [1]: < 0.008 mg/L; inhibition at 30 µM ([2]; concentration of 30 μM, 72 hours, CCK-8): 18%; MIC (anti-bacterial activity) ([8]; strain MSSA 14-1): 0.015 mg/L (≈ 0.0262 µM); MIC (anti-bacterial activity) ([8]; strain MSSA 14-2): 0.015 mg/L (≈ 0.0262 µM); MIC (anti-bacterial activity) ([8]; strain MSSA 14-3): 0.015 mg/L (≈ 0.0262 µM); MIC (anti-bacterial activity) ([8]; strain MSSA 14-4): 0.015 mg/L (≈ 0.0262 µM)
CCCC[C@H](CN(O)C=O)C(=O)N1CC2(CC2)C[C@H]1C(=O)Nc1nccc(-c2cccnc2)n1 [Example 9] | 0.25 (≈ 0.536 µM) | 0.125 (≈ 0.268 µM) | 0.5 (≈ 1.07 µM) | 0.125 (≈ 0.268 µM) | 0.5 (≈ 1.07 µM) | 0.25 (≈ 0.536 µM) | 0.5 (≈ 1.07 µM) | 2 (≈ 4.29 µM) | 0.5 (≈ 1.07 µM) | 2 (≈ 4.29 µM) | 0.25 (≈ 0.536 µM) | 0.25 (≈ 0.536 µM) | 2 (≈ 4.29 µM) | > 64 | > 64 | > 64 | 0.5 (≈ 1.07 µM) | 0.5 (≈ 1.07 µM) | 1 (≈ 2.14 µM) | 0.5 (≈ 1.07 µM) | MetHb % (n = 3) ([9]; 500 μM compound, whole blood + S9 + NADPH, 5 hours at 37° C.): 1.13 ± 0.06%; probability of methemoglobin formation in blood compared with the control drugs LBM415 and GSK1322322 ([9]; toxicity test in vitro, in words): lower probability of methemoglobin formation in blood; inhibition at 30 µM [2]: 6%; MIC (anti-bacterial activity) ([8]; strain MSSA 14-1): 0.25 mg/L (≈ 0.536 µM); MIC (anti-bacterial activity) ([8]; strain MSSA 14-2): 0.5 mg/L (≈ 1.07 µM); MIC (anti-bacterial activity) ([8]; strain MSSA 14-3): 0.5 mg/L (≈ 1.07 µM); MIC (anti-bacterial activity) ([8]; strain MSSA 14-4): 0.25 mg/L (≈ 0.536 µM)
